The test system of data set [1] is Cladosporium cucumerinum. The data set can be described thus: Antimicrobial activity against Cladosporium cucumerinum at <1 ug by TLC-based direct bioautography. The format is functional, organism-based.
Data set [2] in a line: Inhibition of cell division of fertilized sea urchin eggs. Also noted: species or system Egg. As to conditions: echinoidea.
The subject of data set [3] is Cladosporium cucumerinum. The data set can be described thus: Antimicrobial activity against Cladosporium cucumerinum at 3 ug by TLC-based direct bioautography. The format is functional, organism-based.
Data set [4] deals with Cladosporium cucumerinum. The data set can be described thus: Antimicrobial activity against Cladosporium cucumerinum at 5 ug by TLC-based direct bioautography. The format is functional, organism-based.

The source made the active and inactive calls. The calls are words filed in the database; no cut-off is given here.

As to `CC(C)[C@@H](O)/C=C/[C@@H](C)[C@H]1C[C@@H](O)[C@@H]2[C@]1(C)CC[C@@H]1[C@@]3(C)CC[C@H](O)C[C@@H]3[C@@H](O)C[C@]12O`, the outcome in data set [1] was Active. Further, the outcome in data set [2] was Active. For `CC(C)[C@@H](O)CC[C@@H](C)[C@H]1C[C@@H](O)[C@@H]2[C@]1(C)CC[C@@H]1[C@@]3(C)CC[C@H](O)C[C@@H]3[C@@H](O)C[C@]12O`, the result in data set [3] was Active. In the case of `C[C@H](CO)C/C=C/[C@@H](C)[C@H]1C[C@@H](O)[C@@H]2[C@]1(C)CC[C@@H]1[C@@]3(C)CC[C@H](O)C[C@@H]3[C@@H](O)C[C@]12O`, the outcome in data set [4] was Active.

The record behind these values is ChEMBL document CHEMBL1151146, “Starfish Saponins, Part 43. Structures of Two New Sulfated Steroidal Fucofuranosides (Imbricatosides A and B) and Six New Polyhydroxysteroids from the Starfish Dermasterias imbricata” (J Nat Prod, 1990).
